Laboratory results published in patent US20230416245A1, “ADENOSINE ANALOGS FOR THE TREATMENT OF DISEASE” (BIOINTERVENE, INC., priority 2020, published 2023).

Biological target: ADORA3 (Homo sapiens (Human), UniProt P0DMS8)
Experiment: Intracellular calcium release assay (FLIPR)
Assay type: cell-based
Conditions: for EC50: CHO-K1 cells, Fluo-4, top concentration 10 μM, read-out: Cell Calcium Assay EC50; for Cell Calcium Efficacy (%): percentage of the response to NECA
Summary of the method: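 Cells stably expressing ADORA3 (20,000/well, 16–20 h) were loaded with Fluo-4 Direct plus 2.5 mM probenecid for 50 min at 37 °C and 10 min at RT. Compounds (10-point, 3-fold series) were added on FLIPR and the Max–Min fluorescence taken. Activation % was set against high-agonist and DMSO wells, with variable-slope EC50 and efficacy relative to NECA.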

Chain of ADORA3 (P0DMS8 whole entry): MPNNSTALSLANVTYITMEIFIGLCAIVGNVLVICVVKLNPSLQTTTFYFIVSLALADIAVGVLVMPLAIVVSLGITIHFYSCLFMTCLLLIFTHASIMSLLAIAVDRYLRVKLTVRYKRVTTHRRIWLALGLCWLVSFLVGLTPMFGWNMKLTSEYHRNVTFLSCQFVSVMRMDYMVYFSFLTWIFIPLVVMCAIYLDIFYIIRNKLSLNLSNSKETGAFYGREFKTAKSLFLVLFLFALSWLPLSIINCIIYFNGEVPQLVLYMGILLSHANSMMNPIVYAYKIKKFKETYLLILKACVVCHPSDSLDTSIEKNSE

| EC50 [nM] | Cell Calcium Efficacy (%) | SMILES |
| --- | --- | --- |
| 4.7 | 46.8 | O[C@@H]1[C@H](O)[C@@H]2C[C@@H]2[C@H]1n1cnc2c(NCC(F)F)nc(Cl)nc21 [Compound 35, (1R,2R,3S,4R,5S)-4-(2-chloro-6-((2,2-difluoroethyl)amino)-9H-purin-9-yl)bicyclo[3.1.0]hexane-2,3-diol] |
| 6.1 | 55.9 | O[C@@H]1[C@H](O)[C@@H]2C[C@@H]2[C@H]1n1cnc2c(NCC(F)F)cc(Cl)nc21 [Compound 40, (1R,2R,3S,4R,5S)-4-(5-chloro-7-((2,2-difluoroethyl)amino)-3H-imidazo[4,5-b]pyridin-3-yl)bicyclo[3.1.0]hexane-2,3-diol] |
| ≥ 10000 | 4.8 | CCNc1cc(C#CC2CC2)nc2c1ncn2[C@H]1[C@H](O)[C@H](O)[C@@H]2C[C@@H]21 [Compound 46, (1R,2R,3S,4R,5S)-4-(5-(cyclopropylethynyl)-7-(ethylamino)-3H-imidazo[4,5-b]pyridin-3-yl)bicyclo[3.1.0]hexane-2,3-diol] |
| > 10000 | 10 | Cc1c(Cl)nc2c(ncn2[C@H]2[C@H](O)[C@H](O)[C@@H]3C[C@@H]32)c1NCC(F)F [Compound 60, (1R,2R,3S,4R,5S)-4-(5-chloro-7-((2,2-difluoroethyl)amino)-6-methyl-3H-imidazo[4,5-b]pyridin-3-yl)bicyclo[3.1.0]hexane-2,3-diol] |
